From patent US8735584B2 (Merck Patent GmbH, priority 2008, dated 2014)

Target: T1, GST-Aurora A (Homo sapiens, UniProt O14965)
T1 construct: N-terminal GST fusion with full length Aurora A (1-403 amino acids); purchased Carna Biosciences 05-101
T1 sequence (O14965 1-403): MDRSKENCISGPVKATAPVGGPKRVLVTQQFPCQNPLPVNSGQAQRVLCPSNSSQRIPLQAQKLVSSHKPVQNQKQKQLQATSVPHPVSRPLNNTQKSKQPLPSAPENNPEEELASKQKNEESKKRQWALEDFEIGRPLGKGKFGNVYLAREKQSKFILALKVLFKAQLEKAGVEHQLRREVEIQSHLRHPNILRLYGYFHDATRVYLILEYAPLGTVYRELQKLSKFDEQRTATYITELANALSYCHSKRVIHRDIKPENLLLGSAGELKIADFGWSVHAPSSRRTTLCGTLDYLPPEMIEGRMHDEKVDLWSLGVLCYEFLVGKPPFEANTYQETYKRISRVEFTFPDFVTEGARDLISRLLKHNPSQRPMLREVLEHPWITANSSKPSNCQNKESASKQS
Assay: Aurora A IC50, Caliper LC3000 mobility shift assay
Type: biochemical
Settings: LC3000 method; 15 uM ATP (the KM value); read-out: Aurora Kinase A Activity (IC50)
Method in brief: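 Readout: percent conversion of FITC-LRRASLG (1 uM) to phosphopeptide, resolved electrophoretically on a Caliper LC3000, fitted against inhibitor concentration for IC50. Reaction: N-terminal GST full-length Aurora A, ATP at its KM (15 uM), pH 7.5 HEPES with MgCl2/DTT, 25 C for 90 min.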

Row | Compound | IC50 [nM]
1 | O=C(Nc1ccc(Nc2ccnc3[nH]c(=O)c4ccccc4c23)cc1)C1CCCCC1 [Compound 386, Cyclohexanecarboxylic acid-[4-(6-oxo-5,6-dihydro-benzo[c][1,8]naphthyridin-1-ylamino)-phenyl]-amide] | < 11
2 | O=C(Nc1ccc(Nc2ccnc3[nH]c(=O)c4ccccc4c23)cc1)c1cccc(C(F)(F)F)c1F [Compound 387, 2-Fluoro-N-[4-(6-oxo-5,6-dihydro-benzo[c][1,8]naphthyridin-1-ylamino)-phenyl]-3-trifluoromethyl-benzamide] | < 11
3 | O=C(Nc1ccc(Nc2ccnc3[nH]c(=O)c4ccccc4c23)cc1)c1cc(Cl)cc(Cl)c1 [Compound 390, 3,5-Dichloro-N-[4-(6-oxo-5,6-dihydro-benzo[c][1,8]naphthyridin-1-ylamino)-phenyl]-benzamide] | < 11
4 | Cc1ccc(C(=O)Nc2ccc(Nc3ccnc4[nH]c(=O)c5ccccc5c34)cc2)cc1 [Compound 394, 4-Methyl-N-[4-(6-oxo-5,6-dihydro-benzo[c][1,8]naphthyridin-1-ylamino)-phenyl]-benzamide] | < 11
5 | O=C(Nc1ccc(Nc2ccnc3[nH]c(=O)c4ccccc4c23)cc1)c1c(Cl)cccc1Cl [Compound 395, 2,6-Dichloro-N-[4-(6-oxo-5,6-dihydro-benzo[c][1,8]naphthyridin-1-ylamino)-phenyl]-benzamide] | < 11
6 | O=C(Nc1ccc(Nc2ccnc3[nH]c(=O)c4ccccc4c23)cc1)c1ccc(C(F)(F)F)cc1F [Compound 397, 2-Fluoro-N-[4-(6-oxo-5,6-dihydro-benzo[c][1,8]naphthyridin-1-ylamino)-phenyl]-4-trifluoromethyl-benzamide] | < 11
7 | O=C(Nc1ccc(Nc2ccnc3[nH]c(=O)c4ccccc4c23)cc1)c1ccc(Cl)c(Cl)c1 [Compound 398, 3,4-Dichloro-N-[4-(6-oxo-5,6-dihydro-benzo[c][1,8]naphthyridin-1-ylamino)-phenyl]-benzamide] | < 11
8 | O=C(Nc1ccc(Nc2ccnc3[nH]c(=O)c4ccccc4c23)cc1)c1ccc(Cl)cc1Cl [Compound 399, 2,4-Dichloro-N-[4-(6-oxo-5,6-dihydro-benzo[c][1,8]naphthyridin-1-ylamino)-phenyl]-benzamide] | < 11
9 | O=C(Nc1ccc(Nc2ccnc3[nH]c(=O)c4ccccc4c23)cc1)c1cc(C(F)(F)F)cc(C(F)(F)F)c1 [Compound 400, N-[4-(6-Oxo-5,6-dihydro-benzo[c][1,8]naphthyridin-1-ylamino)-phenyl]-3,5-bis-trifluoromethyl-benzamide] | 11 to 100
10 | O=C(Nc1ccc(Nc2ccnc3[nH]c(=O)c4ccc(C(F)(F)F)cc4c23)cc1)c1ccccc1 [Compound 403, N-[4-(9-Trifluoromethyl-6-oxo-5,6-dihydro-benzo[c][1,8]naphthyridin-1-ylamino)-phenyl]-benzamide] | < 11
11 | O=C(Nc1ccc(Oc2ccnc3[nH]c(=O)c4ccccc4c23)cc1)c1ccccc1 [Compound 405, N-[4-(6-Oxo-5,6-dihydro-benzo[c][1,8]naphthyridin-1-yloxy)-phenyl]-benzamide] | 11 to 100
12 | O=C(c1ccc(F)c(F)c1)N1CCC(CNc2ccnc3[nH]c(=O)c4ccccc4c23)CC1 [Compound 408, 1-{[1-(3,4-Difluoro-benzoyl)-piperidin-4-ylmethyl]-amino}-5H-benzo[c][1,8]naphthyridin-6-one] | > 100
13 | O=C(Nc1ccc(Nc2ccnc3[nH]c(=O)c4cc(F)ccc4c23)cc1)c1ccc(F)cc1C(F)(F)F [Compound 414, 4-Fluoro-N-[4-(8-fluoro-6-oxo-5,6-dihydro-benzo[c][1,8]naphthyridin-1-ylamino)-phenyl]-2-trifluoromethyl-benzamide] | < 11
14 | COc1cc2c(=O)[nH]c3nccc(Nc4ccc(NC(=O)c5ccc(F)cc5C(F)(F)F)cc4)c3c2cc1OC [Compound 416, 4-Fluoro-N-[4-(8,9-dimethoxy-6-oxo-5,6-dihydro-benzo[c][1,8]naphthyridin-1-ylamino)-phenyl]-2-trifluoromethyl-benzamide] | < 11
15 | O=C(Cn1cc(Nc2ccnc3[nH]c(=O)c4ccc(F)cc4c23)cn1)Nc1ccc(F)cc1 [Compound 421] | 11 to 100
16 | O=C(Cn1cc(Nc2ccnc3[nH]c(=O)c4ccc(F)cc4c23)cn1)Nc1ccc(C(F)(F)F)cc1 [Compound 422] | 11 to 100

Other lines, results leading:

Row | IC50 [nM] | Compound
17 | < 11 | O=C(Nc1ccc(Nc2ccnc3[nH]c(=O)c4ccccc4c23)cc1)c1c(F)cccc1F [Compound 388, 2,6-Difluoro-N-[4-(6-oxo-5,6-dihydro-benzo[c][1,8]naphthyridin-1-ylamino)-phenyl]-benzamide]
18 | < 11 | O=C(Nc1ccc(Nc2ccnc3[nH]c(=O)c4ccccc4c23)cc1)c1ccc(Cl)cc1 [Compound 389, 4-Chloro-N-[4-(6-oxo-5,6-dihydro-benzo[c][1,8]naphthyridin-1-ylamino)-phenyl]-benzamide]
19 | < 11 | O=C(Nc1ccc(Nc2ccnc3[nH]c(=O)c4ccccc4c23)cc1)c1ccc(F)cc1F [Compound 391, 2,4-Difluoro-N-[4-(6-oxo-5,6-dihydro-benzo[c][1,8]naphthyridin-1-ylamino)-phenyl]-benzamide]
20 | > 100 | O=C(Nc1ccccc1Nc1ccnc2[nH]c(=O)c3ccccc3c12)c1ccccc1 [Compound 392, N-[2-(6-Oxo-5,6-dihydro-benzo[c][1,8]naphthyridin-1-ylamino)-phenyl]-benzamide]
21 | < 11 | O=C(Nc1ccc(Nc2ccnc3[nH]c(=O)c4ccccc4c23)cc1)c1cccc(Cl)c1 [Compound 393, 3-Chloro-N-[4-(6-oxo-5,6-dihydro-benzo[c][1,8]naphthyridin-1-ylamino)-phenyl]-benzamide]
22 | < 11 | O=C(Nc1ccc(Nc2ccnc3[nH]c(=O)c4ccccc4c23)cc1)c1cc(F)cc(C(F)(F)F)c1 [Compound 396, 3-Fluoro-N-[4-(6-oxo-5,6-dihydro-benzo[c][1,8]naphthyridin-1-ylamino)-phenyl]-5-trifluoromethyl-benzamide]
23 | 11 to 100 | O=C(Nc1ccc(Nc2ccnc3[nH]c(=O)c4ccccc4c23)cc1)c1ccc(OC(F)(F)F)cc1 [Compound 401, N-[4-(6-Oxo-5,6-dihydro-benzo[c][1,8]naphthyridin-1-ylamino)-phenyl]-4-trifluoromethoxy-benzamide]
24 | 11 to 100 | O=C(NC1CCC(Nc2ccnc3[nH]c(=O)c4ccccc4c23)CC1)c1ccc(F)c(F)c1 (stereo not drawn) [Compound 402, 3,4-Difluoro-N-[4-(6-oxo-5,6-dihydro-benzo[c][1,8]naphthyridin-1-ylamino)-cyclohexy]-benzamide]
25 | < 11 | O=C(Nc1ccc(Nc2ccnc3[nH]c(=O)c4ccc(C(F)(F)F)cc4c23)cc1)c1ccc(F)cc1C(F)(F)F [Compound 404, 4-Fluoro-N-[4-(9-trifluoromethyl-6-oxo-5,6-dihydro-benzo[c][1,8]naphthyridin-1-ylamino)-phenyl]-2-trifluoromethyl-benzamide]
26 | < 11 | COc1cc2c(=O)[nH]c3nccc(Nc4ccc(NC(=O)c5ccccc5)cc4)c3c2cc1OC [Compound 409, N-[4-(8,9-Dimethoxy-6-oxo-5,6-dihydro-benzo[c][1,8]naphthyridin-1-ylamino)-phenyl]-benzamide]
27 | < 11 | O=C(Nc1ccc(Nc2ccnc3[nH]c(=O)c4ccc(F)cc4c23)cc1)c1ccccc1 [Compound 412, N-[4-(9-Fluoro-6-oxo-5,6-dihydro-benzo[c][1,8]naphthyridin-1-ylamino)-phenyl]-benzamide]
28 | < 11 | O=C(Nc1ccc(Nc2ccnc3[nH]c(=O)c4ccc(F)cc4c23)cc1)c1ccc(F)cc1C(F)(F)F [Compound 413, 4-Fluoro-N-[4-(9-fluoro-6-oxo-5,6-dihydro-benzo[c][1,8]naphthyridin-1-ylamino)-phenyl]-2-trifluoromethyl-benzamide]
29 | < 11 | O=C(Nc1ccc(Nc2ccnc3[nH]c(=O)c4cc(Cl)ccc4c23)cc1)c1ccc(F)cc1C(F)(F)F [Compound 415, 4-Fluoro-N-[4-(8-chloro-6-oxo-5,6-dihydro-benzo[c][1,8]naphthyridin-1-ylamino)-phenyl]-2-trifluoromethyl-benzamide]
30 | < 11 | O=C(Nc1ccc(Nc2ccnc3[nH]c(=O)c4ccc(F)cc4c23)cc1)c1ccc(F)c(F)c1 [Compound 417, 3,4-Difluoro-N-[4-(9-fluoro-6-oxo-5,6-dihydro-benzo[c][1,8]naphthyridin-1-ylamino)-phenyl]-benzamide]
31 | < 11 | O=C(Nc1ccc(Nc2ccnc3[nH]c(=O)c4ccc(F)cc4c23)cc1)c1cccc(F)c1F [Compound 418, 2,3-Difluoro-N-[4-(9-fluoro-6-oxo-5,6-dihydro-benzo[c][1,8]naphthyridin-1-ylamino)-phenyl]-benzamide]
32 | < 11 | O=C(Nc1ccc(Nc2ccnc3[nH]c(=O)c4ccc(F)cc4c23)cc1)c1ccc(F)cc1 [Compound 419, 4-Fluoro-N-[4-(9-fluoro-6-oxo-5,6-dihydro-benzo[c][1,8]naphthyridin-1-ylamino)-phenyl]-benzamide]
33 | < 11 | O=C(Nc1ccc(Nc2ccnc3[nH]c(=O)c4ccc(F)cc4c23)c(F)c1)c1ccc(F)cc1C(F)(F)F [Compound 420, 4-Fluoro-N-[3-fluoro-4-(9-fluoro-6-oxo-5,6-dihydro-benzo[c][1,8]naphthyridin-1-ylamino)-phenyl]-2-trifluoromethyl-benzamide]
